Measured values reported in PubChem BioAssay (NCI).
Values joined by “and” are separate entries in the source; they are usually repeats but may differ in a detail not shown here. Equal values may be shown once.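 In this assay, cells in 96-well plates receive the compound at five concentrations for 48 hours. Endpoints are linearly interpolated between the surrounding concentrations. Here, GI50 denotes the concentration required for 50% inhibition of growth. Definition used: TGI = concentration required for complete inhibition of growth.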

Key:
Assay in all cases: NCI tumour cell line growth inhibition, 48 h
NCI/ADR-RES ovarian = tested on: NCI/ADR-RES ovarian
SF-295 CNS = tested on: SF-295 CNS
EKVX NSCLC = tested on: EKVX NSCLC
MDA-MB-231 breast = tested on: MDA-MB-231 breast
OVCAR-8 ovarian = tested on: OVCAR-8 ovarian
CCRF-CEM leukemia = tested on: CCRF-CEM leukemia
LOX IMVI melanoma = tested on: LOX IMVI melanoma
A549 NSCLC = tested on: A549 NSCLC
U251 CNS = tested on: U251 CNS
IGROV1 ovarian = tested on: IGROV1 ovarian

SMILES: O=C(CCN1CCCC1)Nc1ccc2c(NCCCCc3ccccc3)c3ccccc3nc2c1
- GI50 (NCI/ADR-RES ovarian): 11.3 µM
- TGI (NCI/ADR-RES ovarian): 59.4 µM
- GI50 (SF-295 CNS): 1500 nM
- TGI (SF-295 CNS): 2.88 µM
- GI50 (EKVX NSCLC): 1390 nM
- TGI (EKVX NSCLC): 2.73 µM
- GI50 (MDA-MB-231 breast): 1150 nM
- TGI (MDA-MB-231 breast): 2.43 µM

SMILES: Cc1c2cc[n+](C)cc2c(C)c2c1[nH]c1ccc(O)cc12
- TGI (OVCAR-8 ovarian): > 98.3 µM
- TGI (CCRF-CEM leukemia): > 92.6 µM
- TGI (LOX IMVI melanoma): > 96.4 µM
- TGI (NCI/ADR-RES ovarian): > 100 µM
- TGI (A549 NSCLC): 99.3 µM
- TGI (SF-295 CNS): 64.7 µM
- TGI (U251 CNS): 25 µM
- TGI (EKVX NSCLC): 83.4 µM
- TGI (MDA-MB-231 breast): > 100 µM
- TGI (IGROV1 ovarian): > 100 µM

SMILES: CC(=O)O[C@H]1C(=O)[C@]2(C)[C@@H](OC(=O)OCC(O)CO)C[C@H]3OC[C@@]3(OC(C)=O)[C@H]2[C@H](OC(=O)c2ccccc2)[C@]2(O)C[C@H](OC(=O)[C@H](O)[C@@H](NC(=O)c3ccccc3)c3ccccc3)C(C)=C1C2(C)C (stereo partly specified)
- TGI (OVCAR-8 ovarian): > 78.1 µM
- TGI (CCRF-CEM leukemia): 31 µM
- TGI (LOX IMVI melanoma): 25 µM
- TGI (NCI/ADR-RES ovarian): 4.94 µM
- TGI (A549 NSCLC): > 100 µM
- TGI (U251 CNS): 15.6 µM
- TGI (EKVX NSCLC): > 100 µM
- TGI (MDA-MB-231 breast): 17.2 µM
- TGI (IGROV1 ovarian): > 57.7 µM

SMILES: O=c1c(-c2ccccc2)c[nH]c2cc([N+](=O)[O-])c(/C(Cl)=C/c3ccccc3)cc12
- TGI (OVCAR-8 ovarian): 17.5 µM
- TGI (CCRF-CEM leukemia): 20.3 µM
- TGI (LOX IMVI melanoma): > 22.5 µM
- TGI (NCI/ADR-RES ovarian): 25.5 µM
- TGI (A549 NSCLC): 19.6 µM
- TGI (SF-295 CNS): 26.5 µM
- TGI (U251 CNS): 24.4 µM
- TGI (EKVX NSCLC): 18.6 µM
- TGI (IGROV1 ovarian): > 38.6 µM

SMILES: COc1cc2c(cc1-c1c(C)noc1C)ncc1nc(C3CCCCC3)n(C3CCC(OC(F)F)CC3)c12 (stereo unspecified)
- GI50 (OVCAR-8 ovarian): 2740 nM
- TGI (OVCAR-8 ovarian): > 100 µM
- GI50 (A549 NSCLC): 2890 nM
- TGI (A549 NSCLC): > 100 µM
- GI50 (EKVX NSCLC): 2310 nM
- TGI (EKVX NSCLC): > 100 µM
- GI50 (MDA-MB-231 breast): 1720 nM
- TGI (MDA-MB-231 breast): > 100 µM
- GI50 (IGROV1 ovarian): 3940 nM
- TGI (IGROV1 ovarian): > 100 µM

SMILES: CCP(=O)(CC)C(Cl)(Cl)C(=O)NC
- TGI (OVCAR-8 ovarian): > 100 µM
- TGI (CCRF-CEM leukemia): > 100 µM
- TGI (LOX IMVI melanoma): > 100 µM
- TGI (NCI/ADR-RES ovarian): > 100 µM
- TGI (A549 NSCLC): > 100 µM
- TGI (SF-295 CNS): > 100 µM
- TGI (U251 CNS): > 100 µM
- TGI (MDA-MB-231 breast): > 100 µM
- TGI (IGROV1 ovarian): > 100 µM

SMILES: Cc1c2cc[n+](C)cc2c(COC2OC(CO)C(O)C2O)c2c3ccccc3n(C)c12 (stereo unspecified)
- TGI (OVCAR-8 ovarian): > 100 µM
- TGI (CCRF-CEM leukemia): > 100 µM
- TGI (LOX IMVI melanoma): > 100 µM
- TGI (NCI/ADR-RES ovarian): > 100 µM
- TGI (A549 NSCLC): > 100 µM
- TGI (SF-295 CNS): > 100 µM
- TGI (U251 CNS): > 100 µM
- TGI (EKVX NSCLC): > 100 µM
- TGI (IGROV1 ovarian): > 100 µM

SMILES: CC(C)(C)CC(C)(C)Cc1ccc(OCCOCC[N+](C)(C)Cc2ccccc2)cc1
- GI50 (CCRF-CEM leukemia): 1310 nM
- TGI (CCRF-CEM leukemia): 3.72 µM
- GI50 (NCI/ADR-RES ovarian): 21.5 µM
- TGI (NCI/ADR-RES ovarian): 58.6 µM
- GI50 (A549 NSCLC): 5060 nM
- TGI (A549 NSCLC): 19.7 µM
- GI50 (SF-295 CNS): 3620 nM
- TGI (SF-295 CNS): 15.5 µM
- GI50 (U251 CNS): 1560 nM
- TGI (U251 CNS): 3.08 µM
- GI50 (MDA-MB-231 breast): 1510 nM
- TGI (MDA-MB-231 breast): 3.08 µM
- GI50 (IGROV1 ovarian): 1330 nM
- TGI (IGROV1 ovarian): 2.86 µM

SMILES: CC(=O)OC1CC2(O)C(CCC3(C)C(c4ccc(=O)oc4)CCC32O)C2(C)CCC(O)C=C12 (stereo unspecified)
- GI50 (OVCAR-8 ovarian): 37.5 nM
- TGI (OVCAR-8 ovarian): 0.0926 µM and 0.0472 µM
- GI50 (CCRF-CEM leukemia): 3.87 nM and 37.5 nM
- TGI (CCRF-CEM leukemia): 0.0519 µM and 0.0405 µM
- GI50 (LOX IMVI melanoma): 37.5 nM
- TGI (LOX IMVI melanoma): 0.126 µM and 0.0573 µM
- GI50 (NCI/ADR-RES ovarian): 0.0375 µM
- TGI (NCI/ADR-RES ovarian): 0.143 µM and 0.255 µM
- GI50 (A549 NSCLC): 6.24 nM
- TGI (A549 NSCLC): 0.0272 µM
- GI50 (SF-295 CNS): 37.5 nM
- TGI (SF-295 CNS): 0.0982 µM and 0.0635 µM
- GI50 (U251 CNS): 37.5 nM
- TGI (U251 CNS): 0.151 µM and 0.109 µM
- GI50 (EKVX NSCLC): 37.5 nM
- TGI (EKVX NSCLC): 0.123 µM and 0.0477 µM
- GI50 (IGROV1 ovarian): 37.5 nM
- TGI (IGROV1 ovarian): 0.351 µM and 0.242 µM
